The subject of the first experiment is RS4;11 cells. As to the kind of experiment: RS4;11 cell viability assay (CellTiter Glo).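 Further: acute lymphoblastic leukemia line RS4,11, EC50 derived from percentage of viable cells after treatment relative to untreated controls, cell killing taken as a measure of Bcl-2 inhibition.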 The experiment is classed as cell-based, human. The conditions noted are these: 50,000 cells per well, 10% human serum, 48 hours; read-out: RS4; 11 EC50 Values. A general note: Cellular ATP, detected with luciferase, serves as a proxy for viable cell number.
Experimental: The acute lymphoblastic leukemia (ALL) cell line RS4;11 was used as the primary human cell line to assess the cellular activity of Bcl-2 selective agents in vitro and their efficacy in vivo.
Cell cytotoxicity EC50 values were assessed using CellTiter Glo (Promega) according to the manufacturer's recommendations. The EC50 values were determined as a percentage of viable cells following treatment compared to the untreated control cells.
As to `CC1(C)CCC(CN2CCN(c3ccc(C(=O)NS(=O)(=O)c4ccc(NC[C@H]5CC[C@](C)(O)CC5)c([N+](=O)[O-])c4)c(Oc4cnc5[nH]ccc5c4)c3)CC2)=C(c2ccc(Cl)cc2)C1` [Example 338, 4-(4-{[2-(4-chlorophenyl)-4,4-dimethylcyclohex-1-en-1-yl]methyl}piperazin-1-yl)-N-[(4-{[(cis-4-hydroxy-4-methylcyclohexyl)methyl]amino}-3-nitrophenyl)sulfonyl]-2-(1H-pyrrolo[2,3-b]pyridin-5-yloxy)benzamide], the EC50 stood at 3.4 nM.

Staying with this experiment, now noted: Homo sapiens, RS4-11, 48 h, 50,000 cells per well, 10% human serum, 48 hours; read-out: RS4; 11 EC50 Values.
Regarding `CC1(C)CCC(CN2CCN(c3ccc(C(=O)NS(=O)(=O)c4ccc(NCC5CCN(S(C)(=O)=O)C5)c([N+](=O)[O-])c4)c(Oc4cnc5[nH]ccc5c4)c3)CC2)=C(c2ccc(Cl)cc2)C1` (stereo not drawn) [Example 152, 4-(4-{[2-(4-chlorophenyl)-4,4-dimethylcyclohex-1-en-1-yl]methyl}piperazin-1-yl)-N-{[4-({[1-(methylsulfonyl)pyrrolidin-3-yl]methyl}amino)-3-nitrophenyl]sulfonyl}-2-(1H-pyrrolo[2,3-b]pyridin-5-yloxy)benzamide], the EC50 came to 20.4 nM.
On the same count and under the same terms, the value for `CC1(C)CCC(CN2CCN(c3ccc(C(=O)NS(=O)(=O)c4ccc(OCC5(F)CCOCC5)c(C#N)c4)c(Oc4cnc5[nH]ccc5c4)c3)CC2)=C(c2ccc(Cl)cc2)C1` [Example 299, 4-(4-{[2-(4-chlorophenyl)-4,4-dimethylcyclohex-1-en-1-yl]methyl}piperazin-1-yl)-N-({3-cyano-4-[(4-fluorotetrahydro-2H-pyran-4-yl)methoxy]phenyl}sulfonyl)-2-(1H-pyrrolo[2,3-b]pyridin-5-yloxy)benzamide] was 68 nM; that for `CC1(C)CCC(CN2CCN(c3ccc(C(=O)NS(=O)(=O)c4ccc(NC5CCC6(CC5)OCCO6)c([N+](=O)[O-])c4)c(Oc4cnc5[nH]ccc5c4)c3)CC2)=C(c2ccc(Cl)cc2)C1` [Example 178, 4-(4-{[2-(4-chlorophenyl)-4,4-dimethylcyclohex-1-en-1-yl]methyl}piperazin-1-yl)-N-{[4-(1,4-dioxaspiro[4.5]dec-8-ylamino)-3-nitrophenyl]sulfonyl}-2-(1H-pyrrolo[2,3-b]pyridin-5-yloxy)benzamide] was 202 nM.
`CC1(C)CCC(CN2CCN(c3ccc(C(=O)NS(=O)(=O)c4ccc(N[C@@H]5CCN(S(C)(=O)=O)C5)c([N+](=O)[O-])c4)c(Oc4cnc5[nH]ccc5c4)c3)CC2)=C(c2ccc(Cl)cc2)C1` [Example 149, 4-(4-{[2-(4-chlorophenyl)-4,4-dimethylcyclohex-1-en-1-yl]methyl}piperazin-1-yl)-N-[(4-{[(3R)-1-(methylsulfonyl)pyrrolidin-3-yl]amino}-3-nitrophenyl)sulfonyl]-2-(1H-pyrrolo[2,3-b]pyridin-5-yloxy)benzamide]: the EC50 is 13.5 nM.
Still for that read-out and setting: the figure for `CC1(C)CCC(CN2CCN(c3ccc(C(=O)NS(=O)(=O)c4ccc(N5CCC(N6CCOCC6)CC5)c([N+](=O)[O-])c4)c(Oc4cnc5[nH]ccc5c4)c3)CC2)=C(c2ccc(Cl)cc2)C1` [Example 223, 4-(4-{[2-(4-chlorophenyl)-4,4-dimethylcyclohex-1-en-1-yl]methyl}piperazin-1-yl)-N-({4-[4-(morpholin-4-yl)piperidin-1-yl]-3-nitrophenyl}sulfonyl)-2-(1H-pyrrolo[2,3-b]pyridin-5-yloxy)benzamide] is 182 nM; for `CC1(C)CCC(CN2CCN(c3ccc(C(=O)NS(=O)(=O)c4ccc(NCCC(F)(F)F)c([N+](=O)[O-])c4)c(Oc4cnc5[nH]ccc5c4)c3)CC2)=C(c2ccc(Cl)cc2)C1` [Example 27, 4-(4-{[2-(4-chlorophenyl)-4,4-dimethylcyclohex-1-en-1-yl]methyl}piperazin-1-yl)-N-({3-nitro-4-[(3,3,3-trifluoropropyl)amino]phenyl}sulfonyl)-2-(1H-pyrrolo[2,3-b]pyridin-5-yloxy)benzamide] it is 332 nM.
In the case of `CC(=O)N[C@H]1CC[C@H](Nc2ccc(S(=O)(=O)NC(=O)c3ccc(N4CCN(CC5=C(c6ccc(Cl)cc6)CC(C)(C)CC5)CC4)cc3Oc3cnc4[nH]ccc4c3)cc2[N+](=O)[O-])CC1` [Example 179, Trans-N-[(4-{[4-(acetylamino)cyclohexyl]amino}-3-nitrophenyl)sulfonyl]-4-(4-{[2-(4-chlorophenyl)-4,4-dimethylcyclohex-1-en-1-yl]methyl}piperazin-1-yl)-2-(1H-pyrrolo[2,3-b]pyridin-5-yloxy)benzamide], the EC50 was found to be 42.7 nM.
Same read-out and setting: the figure for `CC1(C)CCC(CN2CCN(c3ccc(C(=O)NS(=O)(=O)c4ccc(N[C@H]5CCN(C6COC6)C5)c([N+](=O)[O-])c4)c(Oc4cnc5[nH]ccc5c4)c3)CC2)=C(c2ccc(Cl)cc2)C1` [Example 212, 4-(4-{[2-(4-chlorophenyl)-4,4-dimethylcyclohex-1-en-1-yl]methyl}piperazin-1-yl)-N-[(3-nitro-4-{[(3S)-1-oxetan-3-ylpyrrolidin-3-yl]amino}phenyl)sulfonyl]-2-(1H-pyrrolo[2,3-b]pyridin-5-yloxy)benzamide] is 12.8 nM; for `CC1(C)CCC(CN2CCN(c3ccc(C(=O)NS(=O)(=O)c4ccc(OCC5CN(C6CC6)CCO5)c([N+](=O)[O-])c4)c(Oc4cnc5[nH]ccc5c4)c3)CC2)=C(c2ccc(Cl)cc2)C1` (stereo not drawn) [Example 354, 4-(4-{[2-(4-chlorophenyl)-4,4-dimethylcyclohex-1-en-1-yl]methyl}piperazin-1-yl)-N-({4-[(4-cyclopropylmorpholin-2-yl)methoxy]-3-nitrophenyl}sulfonyl)-2-(1H-pyrrolo[2,3-b]pyridin-5-yloxy)benzamide] it is 53.2 nM.
On the same count and under the same terms, the figure for `CC1(C)CCC(CN2CCN(c3ccc(C(=O)NS(=O)(=O)c4cnc(OCC5CCN(CC#N)CC5)c(Cl)c4)c(Oc4cnc5[nH]ccc5c4)c3)CC2)=C(c2ccc(Cl)cc2)C1` [Example 253, N-[(5-chloro-6-{[1-(cyanomethyl)piperidin-4-yl]methoxy}pyridin-3-yl)sulfonyl]-4-(4-{[2-(4-chlorophenyl)-4,4-dimethylcyclohex-1-en-1-yl]methyl}piperazin-1-yl)-2-(1H-pyrrolo[2,3-b]pyridin-5-yloxy)benzamide] is 49.6 nM.
Consider `CC1CN(c2ccc(C(=O)NS(=O)(=O)c3ccc(NCC4CCOCC4)c([N+](=O)[O-])c3)c(Oc3cnc4[nH]ccc4c3)c2)CCN1CC1=C(c2ccc(Cl)cc2)CC(C)(C)CC1` (stereo not drawn) [Example 290, 4-(4-{[2-(4-chlorophenyl)-4,4-dimethylcyclohex-1-en-1-yl]methyl}-3-methylpiperazin-1-yl)-N-({3-nitro-4-[(tetrahydro-2H-pyran-4-ylmethyl)amino]phenyl}sulfonyl)-2-(1H-pyrrolo[2,3-b]pyridin-5-yloxy)benzamide], for which the EC50 worked out at 107 nM.
Regarding `CC1(C)CCC(CN2CCN(c3ccc(C(=O)NS(=O)(=O)c4ccc(NN5CCN(C6COC6)CC5)c([N+](=O)[O-])c4)c(Oc4cnc5[nH]ccc5c4)c3)CC2)=C(c2ccc(Cl)cc2)C1` [Example 236, 4-(4-{[2-(4-chlorophenyl)-4,4-dimethylcyclohex-1-en-1-yl]methyl}piperazin-1-yl)-N-[(3-nitro-4-{[4-(oxetan-3-yl)piperazin-1-yl]amino}phenyl)sulfonyl]-2-(1H-pyrrolo[2,3-b]pyridin-5-yloxy)benzamide], the EC50 was determined as 42.9 nM.
As for `CC1(C)CCC(CN2CCN(c3ccc(C(=O)NS(=O)(=O)c4ccc(NCC(F)(F)F)c([N+](=O)[O-])c4)c(Oc4cnc5[nH]ccc5c4)c3)CC2)=C(c2ccc(Cl)cc2)C1` [Example 26, 4-(4-{[2-(4-chlorophenyl)-4,4-dimethylcyclohex-1-en-1-yl]methyl}piperazin-1-yl)-N-({3-nitro-4-[(2,2,2-trifluoroethyl)amino]phenyl}sulfonyl)-2-(1H-pyrrolo[2,3-b]pyridin-5-yloxy)benzamide], the EC50 worked out at 58.9 nM.
Take `CC1(C)CCC(CN2CCN(c3ccc(C(=O)NS(=O)(=O)c4ccc(O[C@H]5CC[C@H](N6CCOCC6)CC5)c([N+](=O)[O-])c4)c(Oc4cnc5[nH]ccc5c4)c3)CC2)=C(c2ccc(Cl)cc2)C1` [Example 60, Trans-4-(4-{[2-(4-chlorophenyl)-4,4-dimethylcyclohex-1-en-1-yl]methyl}piperazin-1-yl)-N-({4-[(4-morpholin-4-ylcyclohexyl)oxy]-3-nitrophenyl}sulfonyl)-2-(1H-pyrrolo[2,3-b]pyridin-5-yloxy)benzamide]: the EC50 amounted to 59.5 nM.
Regarding `CC1(C)CCC(CN2CCN(c3ccc(C(=O)NS(=O)(=O)c4ccc(NCC5COCCN5C5CCOC5)c([N+](=O)[O-])c4)c(Oc4cnc5[nH]ccc5c4)c3)CC2)=C(c2ccc(Cl)cc2)C1` (stereo not drawn) [Example 171, 4-(4-{[2-(4-chlorophenyl)-4,4-dimethylcyclohex-1-en-1-yl]methyl}piperazin-1-yl)-N-[(3-nitro-4-{[(4-tetrahydrofuran-3-ylmorpholin-3-yl)methyl]amino}phenyl)sulfonyl]-2-(1H-pyrrolo[2,3-b]pyridin-5-yloxy)benzamide], the EC50 stood at 52.7 nM.
In the case of `O=C(NS(=O)(=O)c1ccc(NCC2CCOCC2)c([N+](=O)[O-])c1)c1ccc(N2CCN(CC3=C(c4ccc(Cl)cc4)CCC4(CCN(C(CF)CF)CC4)C3)CC2)cc1Oc1cnc2[nH]ccc2c1` [Example 265, 4-(4-{[9-(4-chlorophenyl)-3-(1,3-difluoropropan-2-yl)-3-azaspiro[5.5]undec-8-en-8-yl]methyl}piperazin-1-yl)-N-({3-nitro-4-[(tetrahydro-2H-pyran-4-ylmethyl)amino]phenyl}sulfonyl)-2-(1H-pyrrolo[2,3-b]pyridin-5-yloxy)benzamide], the EC50 stood at 7.17 nM.
Turning to `CC1(C)CCC(CN2CCN(c3ccc(C(=O)NS(=O)(=O)c4ccc(OCC5CCOC(C)(C)C5)c([N+](=O)[O-])c4)c(Oc4cnc5[nH]ccc5c4)c3)CC2)=C(c2ccc(Cl)cc2)C1` (stereo not drawn) [Example 51, 4-(4-{[2-(4-chlorophenyl)-4,4-dimethylcyclohex-1-en-1-yl]methyl}piperazin-1-yl)-N-({4-[(2,2-dimethyltetrahydro-2H-pyran-4-yl)methoxy]-3-nitrophenyl}sulfonyl)-2-(1H-pyrrolo[2,3-b]pyridin-5-yloxy)benzamide], the EC50 was 23.1 nM.

These data come from patent US20240043404A1 (AbbVie Inc., priority 2009, published 2024).
